Data: patent US20240189287A1, “PERIPHERALLY RESTRICTED CB1 RECEPTOR BLOCKERS AND USES THEREOF” (BIONANOSIM (BNS) LTD, priority 2021, published 2024)
Like-named read-outs stand apart in the source and are kept apart here.

Columns and labels:
CB1 receptor [1] = biological target: T1, CB1 receptor (Mus musculus (Mouse), UniProt P47746); assay: CB1 receptor radioligand binding assay, [3H]CP-55,940 displacement, mouse brain membranes; details: mouse (m) CB1 receptor; read-out: CB1R Ki (nM) (m)
Procedure: (§1) Radioligand binding assays: Binding affinity was determined by a radioligand binding assay. The different BB8-conjugates binding to CB1 and CB2 receptors was assessed in competition displacement assays using [^3H]CP-55.940 as the radioligand and crude membranes from mouse brain for CB1 receptor and human kidney cells for CB2 receptor.
(§2) CB1 receptor binding assay: Mouse brain membranes were used as the source material for CB1 receptors. The displacement of specifically bound tritiated CP-55.940 from these membranes using a standard filtration assay was used to determine the Ki values for the test compounds. Briefly. 20 μg of protein was incubated for 1 h at 30° C. in the presence of 0.5 nM [^3H]CP-55,940 and various concentrations (10^−5M-10^−11M) of test compound/control, final volume of 1 mL. The incubation was terminated by rapid filtration and washing, and the amount of specifically bound [^3H]CP-55,940 was determined. Briefly, membranes with bound [^3H]CP-55,940 were separated and washed from free ligand by vacuum filtration, adsorbing the membrane onto a Whatman glass microfiber filter paper ([…], Cat #1821271). Finally, the Whatman filter paper with adsorbed membranes was cut and placed in scintillation liquid (Ultima Gold) for 1 h at 25° C. followed by a β counter reading of bound [^3H]CP-55,940 radioligand. All data were in triplicates with Ki values determined using GraphPad Prism 7.02 analysis software. […] In some cases, membranes from human source were used to determine CB1 receptor binding affinity.

CB1 receptor [2] = biological target: CB1 receptor (Homo sapiens (Human), UniProt P21554); assay: CB1 receptor radioligand binding assay, membranes from human source; details: human (h) CB1 receptor; read-out: CB1R Ki (nM) (h)
Chain of CB1 receptor (Homo sapiens (Human), UniProt P21554) (P21554 whole entry): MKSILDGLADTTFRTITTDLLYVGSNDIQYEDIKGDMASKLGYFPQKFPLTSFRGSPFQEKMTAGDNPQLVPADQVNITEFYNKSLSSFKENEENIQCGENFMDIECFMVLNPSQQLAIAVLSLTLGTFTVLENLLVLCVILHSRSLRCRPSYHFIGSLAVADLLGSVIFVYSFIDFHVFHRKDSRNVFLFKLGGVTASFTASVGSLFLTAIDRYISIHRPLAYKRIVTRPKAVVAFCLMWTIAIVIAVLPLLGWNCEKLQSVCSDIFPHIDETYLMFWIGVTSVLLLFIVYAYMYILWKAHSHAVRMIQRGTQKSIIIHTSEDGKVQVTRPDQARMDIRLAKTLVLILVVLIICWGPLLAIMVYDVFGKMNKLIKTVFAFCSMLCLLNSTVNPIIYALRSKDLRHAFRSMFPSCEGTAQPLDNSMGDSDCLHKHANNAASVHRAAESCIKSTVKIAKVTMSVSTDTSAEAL
Procedure: as §1, §2

CB2 receptor = CB2 receptor (Homo sapiens (Human), UniProt P34972); assay: CB2 receptor radioligand binding assay, [3H]CP-55,940 displacement, human kidney membranes; details: read-out: hCB2R Ki
Chain of CB2 receptor (P34972 whole entry): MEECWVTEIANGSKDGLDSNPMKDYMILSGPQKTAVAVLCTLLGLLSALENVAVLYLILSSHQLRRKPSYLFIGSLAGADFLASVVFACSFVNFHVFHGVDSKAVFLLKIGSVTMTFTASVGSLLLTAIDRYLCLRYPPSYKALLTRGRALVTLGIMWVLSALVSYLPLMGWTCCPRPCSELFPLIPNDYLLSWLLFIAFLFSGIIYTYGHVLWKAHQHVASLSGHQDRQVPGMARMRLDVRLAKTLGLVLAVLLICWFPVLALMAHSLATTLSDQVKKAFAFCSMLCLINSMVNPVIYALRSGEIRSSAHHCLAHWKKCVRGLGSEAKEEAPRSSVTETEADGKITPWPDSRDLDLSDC
Procedure: as §1
CB2 receptor binding assay: Human kidney membranes were used as the source material for CB2 receptors. The displacement of specifically bound tritiated CP-55,940 from these membranes using a standard filtration assay was used to determine the Ki values for the test compounds. Briefly, 1.25 μg of protein was incubated for 1.5 h at 30° C. in the presence of 0.5 nM [^3H]CP-55,940 and various concentrations (10^−5M-10^−11M) of test compound/control, final volume of 1 mL. The incubation was terminated by rapid filtration and washing, and the amount of specifically bound [^3H]CP-55,940 was determined. Briefly, membranes with bound [^3H]CP-55,940 were separated and washed from free ligand by vacuum filtration, adsorbing the membrane onto a Whatman glass microfiber filter paper ([…], Cat #1821271). Finally, the Whatman filter paper with adsorbed membranes was cut and placed in scintillation liquid (Ultima Gold) for 1 h at 25° C. followed by a β counter reading of bound [^3H]CP-55,940 radioligand. All data were in triplicates with Ki values determined using GraphPad Prism 7.02 analysis software.

CB1 receptor [3] = biological target: T1, CB1 receptor; assay: [35S]GTPγS binding assay for CB1 receptor, mouse brain membranes; assay type: biochemical; details: nature of binding: agonist/antagonist/inverse agonist
Procedure: For CB1 receptor-mouse brains were dissected and P2 membranes prepared and resuspended at ˜2 μg protein/μL in 1 ml assay buffer (50 mM Tris HCl, 9 mM MgCl2, 0.2 mM EDTA, 150 mM NaCl; pH 7.4). Ligand-stimulated [^35S]GTPγS binding was assayed as described previously (Tam et al., JCI 2010). Briefly, membranes (10 μg protein) were incubated in assay buffer containing 100 μM GDP, 0.05 nM [^35S]GTPγS, test compounds at various concentrations (CP55940/Rimonabant as controls and test compounds for BB8 conjugates), and 1.4 mg/mL fatty acid-free BSA in siliconized glass tubes. Membranes with bound ligand ([^35S]GTPγS) were separated from free ligand by vacuum filtration and were analyzed using β counter as described above. Non-specific binding was determined using 10 μM GTPS (cold GTP). Basal binding was assayed in the absence of the tested compound and in the presence of GDP.

MDR1-MDCKII cells = assay: MDR1-MDCK II cell permeation assay (bi-directional permeability, P-gp efflux); assay type: in vitro ADME
Procedure: (§3) Test and reference compounds were diluted with transport buffer (HBSS with 10 mM Hepes, pH 7.4) from stock solution to a concentration of 2 μM (DMSO<1%) and applied to the apical or basolateral side of the cell monolayer. Permeation of the test compounds from A to B direction or B to A direction was determined in duplicate with/without P-gp inhibitor (GF120918, 10 μM). […] The plate was incubated for 2.5 hours in CO2 incubator at 37±1° C., with 5% CO2 at saturated humidity without shaking. In addition, the efflux ratio of each compound was also determined. Test and reference compounds were quantified by LC-MS/MS analysis based on the peak area ratio of analyte/IS.
(§4) The in vitro bi-directional permeability across MDR1-MDCKII cells including P-glycoprotein (Pgp, ABCB1) efflux in the presence and absence of a P-gp inhibitor is an indicator as to the tendency of an orally administered compound to penetrate the brain.

P-gp (MDR1, ABCB1) = assay: as above; assay type: in vitro ADME; details: dog; for Papp at 2.5 h, 2 μM: A to B
Procedure: as §3, §4

[4] = Tissue distribution: brain, plasma and liver levels after oral dosing; assay type: in vivo, C57BL/6J mice; details: male, C57BL/6J, mouse, in vivo, po, 10 mg/kg
Procedure: Tissue distribution and pharmacokinetics: Tissue levels of antagonist: 3 male C57BL/6J mice (7-9 weeks, PO group) were used in this study. Mice were fasted prior to administration of test article and had access to food 4 hours post dosing. Appropriate amount of test article was accurately weighted and mixed with the appropriate volume of vehicle to get a clear oral solution. The formulation was prepared on the day of dosing, and mice were dosed via oral gavage up to 4 hr after formulation was prepared. After 1 hour, mice were scarified and about 200 μL blood was collected from cardiac puncture followed by plasma preparation. Brain and liver were removed and further processed. Dose formulation and sample analysis was performed by LC-MS/MS method.
The peripherality of selected BB8 conjugates (BNS) was evaluated in vivo measuring their respective brain, plasma, and liver levels 1 hr following 10 mg/kg oral administration.

HepG2 Cells = assay: Cell Viability Assay in HepG2 Cells at 72 h; assay type: cell-based, human; details: Homo sapiens, HepG2, 72 h; read-out: Relative IC50
Procedure: The liver plays a central role in transforming and clearing chemicals, and therefore is susceptible to toxicity of these agents. BNS808, BNS822 and other selected compounds were tested in the HepG2 assay using […] to evaluate cytotoxicity.

CYP 2D6 = CYP 2D6 (Homo sapiens (Human), UniProt P10635); assay: CYP inhibition in human liver microsomes; assay type: in vitro ADME; details: CYP isozyme 2D6, standard inhibitor
Chain of CYP 2D6 (P10635 whole entry): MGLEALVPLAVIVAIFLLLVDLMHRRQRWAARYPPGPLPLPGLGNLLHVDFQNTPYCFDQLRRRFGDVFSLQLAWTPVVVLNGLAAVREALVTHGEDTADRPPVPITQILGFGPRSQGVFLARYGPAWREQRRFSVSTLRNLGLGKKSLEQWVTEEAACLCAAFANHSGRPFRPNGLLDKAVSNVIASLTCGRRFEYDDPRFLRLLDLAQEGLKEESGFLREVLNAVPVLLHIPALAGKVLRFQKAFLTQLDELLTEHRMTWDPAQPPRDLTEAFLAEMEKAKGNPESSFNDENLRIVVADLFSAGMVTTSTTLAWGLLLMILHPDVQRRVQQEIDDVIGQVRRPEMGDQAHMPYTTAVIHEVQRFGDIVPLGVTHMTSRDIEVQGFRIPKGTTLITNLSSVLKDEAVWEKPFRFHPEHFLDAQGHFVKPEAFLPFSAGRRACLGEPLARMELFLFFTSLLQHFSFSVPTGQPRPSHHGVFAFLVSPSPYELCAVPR
Procedure: To evaluate the in vitro CYP inhibition of BNS808 and BNS822, the compounds were tested in human liver microsomes that are rich in drug metabolizing enzymes, including CYPs 1A2, 2C9, 2C19, 2D6, 3A4.

[5] = MDCK-MDR1, pH 7.4, with GF120918, 10 μM, efflux ratio in the presence of P-gp inhibitor GF120918, read-out: MDR1 B:A/A:B (+P-gp inhibitor)
[6] = MDCK-MDR1, pH 7.4, efflux ratio, without P-gp inhibitor, read-out: MDR1 B:A/A:B

T1 sequence (P47746 whole entry): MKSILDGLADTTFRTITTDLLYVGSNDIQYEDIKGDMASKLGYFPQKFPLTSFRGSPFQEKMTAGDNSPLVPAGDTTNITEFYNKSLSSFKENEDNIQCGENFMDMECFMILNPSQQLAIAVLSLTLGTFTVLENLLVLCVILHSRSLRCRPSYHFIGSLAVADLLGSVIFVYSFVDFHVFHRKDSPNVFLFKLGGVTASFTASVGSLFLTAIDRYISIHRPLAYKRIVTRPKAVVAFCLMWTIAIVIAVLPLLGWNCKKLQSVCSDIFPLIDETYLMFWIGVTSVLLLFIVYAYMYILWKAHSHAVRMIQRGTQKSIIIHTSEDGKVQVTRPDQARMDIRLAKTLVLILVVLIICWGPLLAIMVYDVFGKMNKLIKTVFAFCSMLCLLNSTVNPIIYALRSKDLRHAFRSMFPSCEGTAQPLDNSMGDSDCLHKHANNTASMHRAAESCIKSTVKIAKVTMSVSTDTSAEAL

| Compound | Ki (CB1 receptor [1]) [nM] | Ki (CB1 receptor [2]) [nM] | Ki (CB2 receptor) [µM] | mCB1R GTPγ[^35S] (activity) (CB1 receptor [3]) | P-gp substrate (MDR1-MDCKII cells) | Rank Papp (MDR1-MDCKII cells) | efflux ratio at 2.5 h, 2 μM (P-gp (MDR1, ABCB1); [5]) | Papp at 2.5 h, 2 μM (P-gp (MDR1, ABCB1); MDCK-MDR1, pH 7.4) [×10⁻⁶ cm/s] | efflux ratio at 2.5 h, 2 μM (P-gp (MDR1, ABCB1); [6]) | Kp at 1 h [4] | IC50 (HepG2 Cells) [µM] | % Inhibition (CYP 2D6) [%] |
| --- | --- | --- | --- | --- | --- | --- | --- | --- | --- | --- | --- | --- |
| O=C(NC1CCCOc2c1nn(-c1ccccc1Cl)c2-c1ccc(Cl)cc1)c1nc[nH]n1 (stereo not drawn) [BNS801, N-[2-(2-chlorophenyl)-3-(4-chlorophenyl)-5,6,7,8-tetrahydrooxepino[3,2-c]pyrazol-8-yl]-1H-1,2,4-triazole-3-carboxamide] | 805 | 232 |  |  |  |  |  |  |  |  |  |  |
| O=C(NC1CCCOc2c1nn(-c1ccccc1Cl)c2-c1ccc(Cl)cc1)c1cccnc1 (stereo not drawn) [BNS803, N-[2-(2-chlorophenyl)-3-(4-chlorophenyl)-5,6,7,8-tetrahydrooxepino[3,2-c]pyrazol-8-yl]pyridine-3-carboxamide] | 22.4 | 6.48 | > 9.11 | Inverse agonist | No | High | 0.63 | 13.2 | 0.77 | 1.6 |  |  |
| CC(C)(Oc1ccc(Cl)cc1)C(=O)NC1CCCOc2c1nn(-c1ccccc1Cl)c2-c1ccc(Cl)cc1 (stereo not drawn) [BNS804, 2-(4-chlorophenoxy)-N-[2-(2-chlorophenyl)-3-(4-chlorophenyl)-5,6,7,8-tetrahydrooxepino[3,2-c]pyrazol-8-yl]-2-methyl-propanamide] | 1.16 | 1.96 | 5.7 | Antagonist |  |  |  |  |  |  |  |  |
| O=C(NC1CCCOc2c1nn(-c1ccccc1Cl)c2-c1ccc(Cl)cc1)c1cnccn1 (stereo not drawn) [BNS805, N-[2-(2-chlorophenyl)-3-(4-chlorophenyl)-5,6,7,8-tetrahydrooxepino[3,2-c]pyrazol-8-yl]pyrazine-2-carboxamide] | 77.8 | 8.75 | 8.34 | Inverse agonist | Partial | Moderate | 0.55 | 4.93 | 0.82 |  |  |  |
| O=C(NC1CCCOc2c1nn(-c1ccccc1Cl)c2-c1ccc(Cl)cc1)c1ncc[nH]1 (stereo not drawn) [BNS806, N-[2-(2-chlorophenyl)-3-(4-chlorophenyl)-5,6,7,8-tetrahydrooxepino[3,2-c]pyrazol-8-yl]-1H-imidazole-2-carboxamide] | 165 | 23.7 | > 9.11 | Antagonist; In. Agonist >[c] |  |  |  |  |  |  |  |  |
| Cc1ccc(S(=O)(=O)NC2CCCOc3c2nn(-c2ccccc2Cl)c3-c2ccc(Cl)cc2)cc1 (stereo not drawn) [BNS807, N-[2-(2-chlorophenyl)-3-(4-chlorophenyl)-5,6,7,8-tetrahydrooxepino[3,2-c]pyrazol-8-yl]-4-methyl-benzenesulfonamide] | 10 | 1.4 | 1.65 | Inverse agonist |  |  |  |  |  |  | 17.9 |  |
| CS(=O)(=O)NC1CCCOc2c1nn(-c1ccccc1Cl)c2-c1ccc(Cl)cc1 (stereo not drawn) [BNS809, N-[2-(2-chlorophenyl)-3-(4-chlorophenyl)-5,6,7,8-tetrahydrooxepino[3,2-c]pyrazol-8-yl]methanesulfonamide] | 33.8 | 7.7 | > 9.11 | Antagonist |  |  |  |  |  |  |  |  |
| C=C[C@H]1C[N@@]2CC[C@H]1C[C@@H]2[C@@H](O)c1ccnc2ccc(OC)cc12 [Quinidine, reference compound] |  |  |  |  |  |  |  |  |  |  |  | 96.2 |
